The results in this text go back to patent US20260176289A1, “SMALL MOLECULE INHIBITORS OF KRAS PROTEINS” (Merck Sharp & Dohme LLC, priority 2022, published 2026).

The structures appear in SMILES notation.

The target of test [1] is KRAS-WT (Homo sapiens, UniProt P01116). Put plainly: SOS-catalyzed nucleotide exchange assay (Procedure A, TR-FRET), KRAS-WT. The note with it: nucleotide exchange, read-out: KRAS WT GNE IC50. It is filed as biochemical. In short, it runs like this:
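Inhibitors stabilizing the Bodipy-GDP state are detected as retained TR-FRET from a preformed biotinylated RAS/Tb-streptavidin complex. They are preincubated 60 min at room temperature, then human SOS and 3 mM GTP are added. G12V runs 90 min at 1.25 nM RAS/160 nM SOS. G12C (3 nM), WT (1 nM) and NRAS (1.25 nM) run 60 min with 40 nM SOS.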
For orientation: In TR-FRET formats the signal depends on donor and acceptor labels being close together.

Test [2] has as its target KRAS-G12D (Homo sapiens, UniProt P01116, G12D). Kind of test: SOS-catalyzed nucleotide exchange assay (Procedure A, TR-FRET), KRAS-G12D. It is filed as biochemical. To be noted: nucleotide exchange, read-out: KRAS G12D GNE IC50. In short, it runs like this:
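Signal ratio (520/495 nm, excitation 340 nm) reports Bodipy-GDP retention on biotinylated RAS after SOS-catalyzed exchange with 3 mM GTP. SOS was 40 nM, except 160 nM for G12V. Room-temperature exchange lasted 60 min (90 min for G12V), following a 60 min compound preincubation.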

KRAS-WT, sequence (P01116 with tags, fused parts or gaps isoform P01116-2): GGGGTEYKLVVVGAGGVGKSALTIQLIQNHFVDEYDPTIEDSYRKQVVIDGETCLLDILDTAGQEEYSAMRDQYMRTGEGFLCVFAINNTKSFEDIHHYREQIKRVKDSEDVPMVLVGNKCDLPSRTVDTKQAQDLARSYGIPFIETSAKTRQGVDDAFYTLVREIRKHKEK
KRAS-G12D, sequence (P01116 with tags, fused parts or gaps isoform P01116-2 G12D): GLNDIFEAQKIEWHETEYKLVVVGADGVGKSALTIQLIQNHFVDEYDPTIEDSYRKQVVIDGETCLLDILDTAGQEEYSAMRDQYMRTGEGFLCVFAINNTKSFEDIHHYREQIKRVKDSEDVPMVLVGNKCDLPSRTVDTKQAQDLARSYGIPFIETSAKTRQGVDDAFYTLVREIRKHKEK

For orientation: IC50 means the concentration at which inhibition is half-maximal. Consider `C#Cc1c(F)ccc2cc(O)cc(-c3nccc4c5c(N6CCOC[C@@](C)(O)C6)nc(OC[C@@]67CCCN6C[C@H](F)C7)nc5n(C)c34)c12` [Ex-18, (S)-4-(8-(8-ethynyl-7-fluoro-3-hydroxynaphthalen-1-yl)-2-(((2R,7aS)-2-fluorotetrahydro-1H-pyrrolizin-7a(5H)-yl)methoxy)-9-methyl-9H-pyrido[4′,3′:4,5]pyrrolo[2,3-d]pyrimidin-4-yl)-6-methyl-1,4-oxazepan-6-ol], for which the IC50 in test [1] was 1.46 nM; in test [2], 1.15 nM.
